Measurements reported in patent US9044474B2, “Compositions and methods for increasing drug efficacy in cancer” (The Ohio State University, priority 2010, dated 2015).
Where a name gives a salt, the structure may show the parent alone.

Assays:
p62 [1] = test: p62 immunoblot in CLL cells treated in vitro; assay type: cell-based, human; conditions: flavopiridol 2 μM, 4 hours
Description: (§1) Proteins extracted from whole cell lysates (50 μg/lane) were separated on polyacrylamide gels and transferred on nitrocellulose membrane. Antibodies used for immunoblots included LC3, IRE1α, TRAF2, PI3K III, ATG4C, ATG5-12, UVRAG, Beclin-1 (Cell Signaling, Boston, Mass.), GAPDH, Nrf2, ASK1, ULK1 (Santa Cruz Biotechnology), and Bif-1, ATG14-Barkor (Sigma-Aldrich, St Louis, Mo.). Species-appropriate secondary antibodies were obtained from BioRad Laboratories (Hercules, Calif.). Following antibody incubations, proteins were detected using a chemiluminescent substrate (BioRad Laboratories). For co-immunoprecipitations, TrueBlot beads (eBiosciences, San Diego, Calif.) and One-hour IP Western kit (GenScript, Piscataway, N.J.) were used according to manufacturer protocols. Quantification was done using FluorChem Q (Alpha Innotech, San Leandro Calif.).

CLL patients = CLL patients treated with flavopiridol; cited from earlier work
ATF6 = ATF6 nuclear translocation by confocal fluorescence microscopy in CLL cells; assay type: cell-based, human; conditions: CLL patient cells, flavopiridol 2 μM or thapsigargin 1 μM, 4 hours
Description: After 4 hours exposure to agents, cells were washed in phosphate-buffered saline (PBS) and made adherent on a microscope slide by centrifugation in a Cytospin3 (Shandon) centrifuge. Immediately after cytospin, cells were fixed in cold acetone. Next, the cells were incubated in blocking solution (2% bovine serum albumin in PBS) and stained for LC3 (Cell Signaling, Boston, Mass.)) and Lamp2 (Santa Cruz Biotechnology, Santa Cruz, Calif.) by incubating separately with the respective primary antibodies over night, in 4° C., followed by incubation with fluorescent secondary antibodies (Invitrogen, Carlsbad, Calif.): Alexa fluor 594 (red) anti-rabbit for LC3 and Alexa fluor 488 (green) anti-mouse for Lamp2. Nuclei were stained blue with DAPI (Vector Laboratories, Burlingame, Calif.). Images were taken using a 60× objective and 4× digital zoom with Olympus Fluoview 1000 Laser Scanning Confocal microscope at the Ohio State University Campus Microscopy and Imaging Facility. ATF6 antibody was purchased from LifeSpan Biosciences (Seattle, Wash.) and Nrf2 was from Santa Cruz Biotechnology (Santa Cruz, Calif.). Nuclei were evaluated for ATF6 and Nrf2 using confocal microscopy to collect Z stacks, approximately 45 slices per cell, 0.2 μm each.

IRE1-ASK1-TRAF2 complex = test: Co-immunoprecipitation of IRE1-ASK1-TRAF2 complex in samples from flavopiridol-treated CLL patients; design: species or system human; conditions: CLL patient cells in vivo following flavopiridol infusion
Description: as §1

JNK1 and p38MAPK [2] = test: Immunoblot of phosphorylated JNK1 and p38MAPK in samples from CLL patients treated with flavopiridol; assay type: in vivo, human; conditions: samples 4.5 hours following flavopiridol infusion
Description: as §1

CLL cells = test: LC3 confocal immunofluorescence (autophagosome formation) in CLL cells in vitro; assay type: cell-based, human; conditions: for LC3 aggregation / LC3 fluorescence (autophagosome formation) versus vehicle: CLL patient cells, 4 hours, rapamycin 5 μM, thapsigargin 1 μM, F-ara-A 5 μM, chlorambucil 20 μM, CAL-101 1 μM, rituximab 10 μg/ml, flavopiridol 2 μM, CQ 0.5 μM
Description: After 4 hours exposure to agents, cells were washed in phosphate-buffered saline (PBS) and made adherent on a microscope slide by centrifugation in a Cytospin3 (Shandon) centrifuge. Immediately after cytospin, cells were fixed in cold acetone. […] Nuclei were stained blue with DAPI (Vector Laboratories, Burlingame, Calif.). Images were taken using a 60× objective and 4× digital zoom with Olympus Fluoview 1000 Laser Scanning Confocal microscope at the Ohio State University Campus Microscopy and Imaging Facility. ATF6 antibody was purchased from LifeSpan Biosciences (Seattle, Wash.) and Nrf2 was from Santa Cruz Biotechnology (Santa Cruz, Calif.). Nuclei were evaluated for ATF6 and Nrf2 using confocal microscopy to collect Z stacks, approximately 45 slices per cell, 0.2 μm each.
LC3 intensity and number of dots per cell were both assessed in the fluorescence images. Integrated intensity was measured using Metamorph v.7.0. To calculate the number of “dots” (local extreme point in pixel-intensity profile at which a number of high-intensity pixels form a cluster), a Gaussian filter was first applied to reduce noise. Cells were enumerated electronically by an improved watershed-based algorithm. To quantify co-localization, two binary nuclei images—red (R) and green (G)—are obtained. The correlation value is calculated as the number of white pixels of (R&G) divided by the number of pixels of (RIG), where (R&G) is the intersection of R and G, and (RIG) is the union of R and G. The program used for cell counts and measurement of correlation index is based on MatLab software (Natick, Mass.) and it was developed by members of Department of Biomedical Informatics, The Ohio State University.

JNK1 and p38MAPK [3] = test: Immunoblot of phosphorylated JNK1 and p38MAPK in CLL cells in vitro; assay type: cell-based, human; conditions: flavopiridol 2 μM, thapsigargin 1 μM, F-ara-A 5 μM
Description: as §1

IRE1 = test: XBP1 splicing (IRE1 activity) PCR in CLL cells; assay type: cell-based, human
Description: RNA was extracted using TRIzol reagent (Invitrogen, Carlsbad, Calif.) and purified using QIAGEN RNeasy columns (Qiagen, Valencia, Calif.). cDNA was prepared with SuperScript First-Strand Synthesis System (Invitrogen). Real-time PCR was performed using primers purchased from Applied Biosystems. Detection was performed using an ABI Prism 7700 sequence detection system (Applied Biosystems). Average relative expression (treatment compared with vehicle) was normalized to the internal control gene CD52. Primers to detect spliced XBP1 were designed using Primer 3 software and purchased from IDT. Samples were analyzed on 10% acrylamide gels.

p62 [4] = test: p62 immunoblot in samples from CLL patients treated with flavopiridol; assay type: in vivo, human; conditions: samples at 4.5 hours post flavopiridol infusion
Description: In this trial, CLL cells were collected pre- and post-therapy 4.5 hours, day 1 (n=16). By confocal fluorescence microscopy, both increased autophagosome formation (P=0.0011) and fusion with lysosomes is observed (FIG. 3F). […] The level of autophagy, as assessed by LC3 fluorescence intensity, was overall greater in non-responders versus responders in both pre- and post-treatment samples (P=0.018); however, the increase in intensity at 4.5 hours post- vs. pre-treatment was only slightly higher for non-responders compared to responders (fold change of 2.51 vs. 1.82, P=0.3445). […] Collectively, these studies provide evidence that our in vitro observations are relevant to the clinical setting.
as §1, with “For co-immunoprecipitations, TrueBlot beads (eBiosciences, San Diego, Calif.) and One-hour IP Western kit (GenScript, Piscataway, N.J.) were used according to manufacturer protocols.” left out

caspases 4 and 8 = test: Caspase 4 and 8 activity in samples from CLL patients treated with flavopiridol; assay type: in vivo, human; conditions: 4.5 hours following flavopiridol infusion
Description: The presence of active caspase enzymes was determined by the AFC assay. Briefly, lysates containing approximately 3×10^6 cells were incubated with 50 μM LEVD-AFC (caspase 4 substrate) or LETD-AFC (caspase 8 substrate) from MP Biomedicals (Solon, Ohio) in 2× cytobuffer from BioVision (Exton, Pa.) containing 10 mM dithiothretiol (DTT). Caspase 4 activity was measured one hour after addition of substrate and caspase 8 activity was measured 30 minutes after addition of substrate. Release of free AFC was measured with a Beckman-Coulter DTX 880 multimode detector (Filters: excitation, 405/10 nm; emission, 535/25 nm). Caspase 4 inhibitor Z-YVAD-FMK was purchased from R&D Systems.

## CN1CC[C@H](c2c(O)cc(O)c3c(=O)cc(-c4ccccc4Cl)oc23)[C@H](O)C1 [flavopiridol, (cis-5,7-dihydroxy-2-(2-chlorophenyl)-8-[4-(3-hydroxy-1-methyl)-piperidin-yl]-1-benzopyran-4-one)hydrochloride]
p62 [1]
  p62 protein level: p62 levels are decreased
CLL patients
  CLL patients in whom drug resistance is usually observed: approximately 40%
ATF6
  ATF6 nuclear translocation: increased nuclear translocation
IRE1-ASK1-TRAF2 complex
  IRE1 and ASK1 association with TRAF2: increase in IRE1 and ASK1 association with TRAF2
JNK1 and p38MAPK [2]
  CLL patients with JNK1 and p38MAPK phosphorylation: five of ten
CLL cells; CLL cells n=3, flavopiridol washed out after 4 hours
  LC3 fluorescence time course, flavopiridol vs vehicle: significant (P=0.001) at 3, 4 and 8 hours, and decreased to levels comparable to vehicle alone at 12 and 24 hours
CLL cells
  LC3 aggregation / LC3 fluorescence (autophagosome formation) versus vehicle: formation of autophagosomes was observed
CLL cells; listed as Flavopiridol
  LC3 aggregation / LC3 fluorescence (autophagosome formation) versus vehicle: comparable to the increase seen with rapamycin
JNK1 and p38MAPK [3]
  phosphorylation of JNK1 and p38MAPK: induced the phosphorylation of both JNK1 and p38MAPK
IRE1; CLL cells
  IRE1 activity (splicing of IRE1 substrate XBP1): no evidence of IRE1 activity
IRE1; CLL samples tested
  CLL samples with deficiency in XBP1 splicing: 8 of 10
p62 [4]
  p62 protein expression: a decrease in protein expression
Caspases 4 and 8
  patient samples with at least a two-fold increase in activity of caspases 4 and 8: 13 of 20
